Values quoted from earlier work in patent US20100183693A1 (priority 2005, published 2010).
Entries after “also recorded” stand apart in the source; their conditions may differ. Where two headings read alike, the source gives them in different places.

SMILES	Effectiveness of Biocides (rank order) (pH 6.8)	Effectiveness of Biocides (rank order) (pH 8)
CC1(C)C(=O)N(Cl)C(=O)N1Br [BCDMH, bromo-chlorodimethyl hydantoin]	BCDMH < ozone; also recorded: ClO2 < HOCl + NaBr < BCDMH < Cl2 <	HOCl + NaBr < ClO2 < BCDMH < Cl2 <
[O][Cl+][O-] [ClO2, chlorine dioxide]	Cl2 < NaOCl < HOCl + NaBr < ClO2 <; also recorded: ClO2 < HOCl + NaBr < BCDMH < Cl2 <	HOCl + NaBr < ClO2 < BCDMH < Cl2 <
[Na+].[O-]Cl [NaOCl]	Cl2 < NaOCl < HOCl + NaBr < ClO2 <; also recorded: NaOCl < ozone	NaOCl < ozone
O=[O+][O-] [Sample O3, ozone]	BCDMH < ozone; also recorded: NaOCl < ozone	NaOCl < ozone
